Test results reported in patent publication US11819498B2, “Methods and compositions for treating autophagy related disease states and conditions utilizing AMPK activation” (UNM RAINFOREST INNOVATIONS, priority 2019, dated 2023).
Where a SMILES comes first, the peptide text is derived from it. The star is where a group is joined. βNA = c1ccc2cc(N*)ccc2c1

Assays:
AMPK = experiment: Western blot of AMPK activation upon lysosomal damage by damaging agents; format: cell-based; conditions: HEK293T cells, time and dose dependent, Western blot (FIGS. 4SE-F)
Experimental: (§1) Western blotting and co-immunoprecipitation (co-IP) were performed as described previously (Chauhan et al., 2016). For TAK1 inhibition, the cells were treated with TAK1 inhibitor (5Z-oxozeanol) 1 h prior to LLOMe treatment. For co-IP, cells were transfected with plasmids as indicated in figures and lysed in NP-40 buffer containing protease inhibitor cocktail and PMSF. Lysates were incubated with antibodies at 4° C. for 4 h followed by incubation with protein G Dynabeads for 2 h at 4° C. Beads were washed three times with PBS and boiled with SDS containing sample buffer, samples were processed for immunoblotting to analyze the interactions between immunoprecipitated proteins.

ALIX puncta = ALIX puncta by high content microscopy in THP-1 cells; format: cell-based; conditions: 250 μM metformin 2 h or 250 μM LLOMe 1 h (FIG. 5SF)
Experimental: (§2) The cells were plated in 96 well plates on day 1 and were treated on day 2, followed by fixation in 4% paraformaldehyde for 5 min. After fixation, cells were washed twice with 1×PBS and were then permeabilized with 0.1% saponin in 3% Bovine serum albumin (BSA) for 30 min. The cells were then incubated with primary antibodies O/N at 4° C. On day3, the cells were washed twice with 1×PBS and incubated with secondary antibodies for 1 h followed by 5 min incubation with Hoechst 33342. High content microscopy with automated image acquisition and quantification was carried out using a Cellomics HCS scanner and iDEV software (ThermoFisher Scientific). Automated epifluorescence image collection was performed for a minimum of 500 cells per well. Epifluorescence images were machine analyzed using preset scanning parameters and object mask definitions. Hoechst 33342 staining was used for autofocus and to automatically define cellular outlines based on background staining of the cytoplasm. Primary objects were cells, and regions of interest (ROI) or targets were algorithm-defined by shape/segmentation, maximum/minimum average intensity, total area and total intensity, etc., to automatically identify puncta or other profiles within valid primary objects. All data collection, processing (object, ROI, and target mask assignments) and analyses were computer driven independently of human operators.

AMPKα1 on lysosomes = experiment: LysoIP lysosome purification and immunoblot; format: cell-based; conditions: HEK293T cells, 1 mM LLOMe 30 min, LysoIP (FIG. 6B)
Experimental: Stable LysoIP cells were produced, by utilizing lentiviruses constructs from David M. Sabatini Lab (White Head Institute). HEK293T cells were transfected with pLJC5-TMEM192-3xHA or pLJC5-TMEM192-2XFLAG constructs in combination with pCMV-VSV-G and psPAX2 packaging plasmids, 60 h after transfection, the supernatant containing lentiviruses was collected and centrifuged to remove cells and then frozen at −80° C. To establish LysoIP stably expressing cell lines, HEK293T, Huh7 or Huh7 Gal9^KO cells were plated in […] in DMEM with 10% FBS and infected with 500 μL of virus-containing media overnight followed by addition of 1 μg/mL puromycin for selection. Cells were plated in 15 cm^2 culture plates and were used at 90% confluency for each LysoIP. Cells with or without 1 mM LLOMe treatment were quickly rinsed twice with PBS and then scraped in 1 mL of KPBS (136 mM KCl, 10 mM KH2PO4, pH7.25 was adjusted with KOH) and centrifuged at 3000 rpm for 2 min at 4° C. Pelleted cells were resuspended in 950 μL KPBS and reserved 25 μL for further processing of the whole-cell lysate. The remaining cells were gently homogenized with 20 strokes of a 2 mL homogenizer. The homogenate was then centrifuged at 3000 rpm for 2 min at 4° C. and the supernatant was incubated with 100 μL of KPBS prewashed anti-HA magnetic beads (ThermoFisher) on a gentle rotator shaker for 3 min. […]

[1] = system: Gal9 complexes with AMPK and TAK1; experiment: APEX2-Gal9 proximity biotinylation and co-IP after LLOMe; format: cell-based
Experimental: as §1

autophagy = conditions: cited studies; cited from earlier work
LC3 puncta = LC3 puncta by high content microscopy in THP-1 cells; format: cell-based; conditions: 250 μM metformin 2 h, compared with LLOMe (FIG. 7A)
Experimental: as §2

ubiquitin puncta = experiment: Ubiquitin puncta by high content microscopy in THP-1 cells; format: cell-based; conditions: 250 μM metformin 2 h compared with 250 μM LLOMe 1 h (FIG. 5SC)
Experimental: as §2

Gal8 puncta = Gal8 puncta by high content microscopy in THP-1 cells; format: cell-based; conditions: 250 μM for 2 h, HCM (FIG. 5SB)
Experimental: as §2

[2] = system: LysoTracker Red staining of acidified compartments such as lysosomes; experiment: LysoTracker assay in THP-1 cells; format: cell-based; conditions: 250 μM for 2 h (FIG. 5SD)
Experimental: Prepare fresh LysoTracker Staining Solution (2 μL LysoTracker in 1 mL medium). Add 10 μL LysoTracker Staining Solution to no treatment, LLOMe treated or Metformin treated THP-1 cells in 96 wells for total 100 μL per well and incubate at 37° C. for 30 min protected from light. Rinse gently by 1×PBS and fix in 4% Paraformaldehyde for 2 min. Wash once by 1×PBS and blot with Hoechst 33342 for 2 min before detecting by high content microscopy.

Gal9 puncta = Gal9 puncta by high content microscopy in metformin-treated cells; format: cell-based
Experimental: as §2

LC3 = LC3 response in Huh7 and HeLa cells treated with TAK1 inhibitor and LLOMe; format: cell-based; conditions: with LLOMe (FIG. 5C)
Experimental: as §1

AMPKα1 = experiment: Western blot of Huh7 cells treated with TAK1 inhibitor and LLOMe; format: cell-based; conditions: TAK1 inhibitor 1 h prior to 1 mM LLOMe 30 min
Experimental: as §1

TAK1 = experiment: Western blot of HeLa cells treated with TAK1 inhibitor and LLOMe; format: cell-based; conditions: 1 mM LLOMe 30 min (FIG. 5C)
Experimental: as §1

NCC(=O)N[C@@H](Cc1ccccc1)C(=O)Nc1ccc2ccccc2c1 [GPN, Gly-Phe β-naphthylamide] (H-Gly-Phe-βNA)
AMPK activation upon lysosomal damage (AMPK): activated

Br.COC(=O)[C@H](CC(C)C)NC(=O)[C@@H](N)CC(C)C [LLOMe, Leu-Leu methyl ester hydrobromide]
ALIX puncta response (ALIX puncta): a robust response
AMPK activation upon lysosomal damage (AMPK): activated
AMPKα1 on purified lysosomes (AMPKα1 on lysosomes): enrichment of AMPKα1 on lysosomes
association between AMPK and Gal9 ([1]; APEX2-Gal9 proximity biotinylation, 30 min of exposure (FIG. 4SA)): increased association
mCherry-Gal9 association with GFP-TAK1 ([1]; HeLa Flp-In Gal9 Tet-ON cells, 30 min of treatment (FIG. 4SB)): A similar increase
autophagy induction (autophagy): has been shown to induce autophagy

CN(C)C(=N)N=C(N)N [metformin]
LC3 response (average area of LC3 puncta per cell) (LC3 puncta): a similar LC3 response
ubiquitination response (ubiquitin puncta) (ubiquitin puncta): a ubiquitination response albeit of a lesser magnitude than when applying an overt lysosomal damaging agent LLOMe
ALIX puncta response (ALIX puncta): a milder but significant response
puncta stained for Gal8 (Gal8 puncta): an increase in puncta stained for Gal8
LysoTracker Red staining [2]: a decrease in staining
response of Huh7 or 293T cells to metformin (Gal9 puncta; Huh7 or 293T cells): did not respond
lysosomal damage response, Gal9 puncta formation (Gal9 puncta; THP-1 cells, 250 μM for 2 h, HCM (FIG. 5SB)): lysosomal damage response by detecting Gal9 puncta formation

COc1cc(O)c2c(c1)/C=C/C[C@H](O)[C@H](O)C(=O)/C=C\C[C@H](C)OC2=O [5ZO, (5-Z)-7-oxozeaenol]
LC3 response (LC3): reduced the LC3 response
AMPKα1 activation upon lysosomal damage (AMPKα1): prevented AMPKα1 activation
TAK1 activation with LLOMe (TAK1): suppressed TAK1 activation
phosphorylation of AMPK substrate ACC (pS79) (TAK1): inhibition of phosphorylation
phosphorylation of AMPKα1 (pT172) (TAK1): inhibition of phosphorylation
